# Assay results as given in article PMC10388311, “Innovative Strategy toward Mutant CFTR Rescue in Cystic Fibrosis: Design and Synthesis of Thiadiazole Inhibitors of the E3 Ligase RNF5” (Journal of Medicinal Chemistry, 2023).
# Read-outs that look alike come from different tables or passages of the source.
# Experiments:
# [1] = biological target: T1, recombinant RNF5 (1–117) protein (Homo sapiens, UniProt Q99942); test: WaterLOGSY and STD NMR binding experiments; conditions: compound 50 μM, 3 μM RNF5 (1–117)
# T1 construct: human RNF5 protein (aa 1–117) truncated to exclude the transmembrane domains; GST (followed by TEV protease site) (N, cleaved yes); host or cells: Escherichia coli BL21(DE3)
# T1 sequence (Q99942 1-117): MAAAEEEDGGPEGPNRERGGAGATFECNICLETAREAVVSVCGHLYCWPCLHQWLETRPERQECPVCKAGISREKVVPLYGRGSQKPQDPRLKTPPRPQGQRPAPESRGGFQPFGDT
# Source text: The bindings of compounds 12, 40, and 42 were initially evaluated by MicroScale Thermophoresis (MST) using a purified recombinant truncated form of RNF5 (aa 1–117), lacking the C-terminal transmembrane domains. The protein was covalently labeled with a red dye (NHS) on the primary amines (lysine residues). […] NMR experiments on the recombinant RNF5 form were further performed to test the direct binding of the three compounds to the protein with a more sensitive, label-free, independent approach. Analogs 12, 40, and 42 were tested at 50 μM in the absence and in the presence of 3 μM RNF5 (1–117) protein. […] Indeed, for all three compounds, the NMR signals of their methyls are present in the STD spectra, and in the WaterLOGSY spectra, their signals change from negative to positive in the presence of the protein, indisputably highlighting the formation of compound–protein binding events. […] It has to be noted that NMR is a very sensitive technique that allows detecting also compounds weakly binding to their target protein independent of the possible downstream biological effects. […]
# All the NMR experiments were recorded at 298 K using a 5 mm CryoProbe QCI ^1H/^19F–^13C/^15N–D quadruple resonance, a shielded z-gradient coil, and an automatic sample changer SampleJet NMR system with temperature control. […] For all samples, a 1D ^1H NMR experiment was recorded, the water suppression was obtained using the standard NOESY (nuclear Overhauser effect spectroscopy) preset Bruker pulse sequence, with 64k data points, a spectral width (sw) of 30 ppm, 64 scans, acquisition time (aq) of 1.835 s, a relaxation delay (d1) of 4 s, and a mixing time of 10 ms. […] WaterLOGSY experiments were recorded with the same parameters used in solubility assays, but with a higher number of scans (512); STD experiments were recorded with 128 scans, with two on (0.7 and 1 ppm) and one off (−50 ppm) resonance spectra, a Gaussian-shaped train pulse of 50 ms each was employed, with a total saturation time of the protein envelope of 5, 3, 2, 1.5, 1, or 0.5 s. […]
# [2] = Solubility and aggregation in PBS buffer by NMR (SPAM filter, 1H 1D and WaterLOGSY); type: physicochemical; conditions: for solubility and aggregation in PBS (in words): NMR; for solubility at 20 µM / solubility at 50 µM / solubility at 100 µM / aggregation in PBS buffer by NMR / solubility: PBS pH 7.5, 1 μM ZnCl2, 1 mM DTT, 10% D2O, 1% DMSO-d6; for solubility at 100 µM: theoretical concentration 100 μM; for aggregation in PBS buffer by NMR: WaterLOGSY
# Source text: Under these circumstances, it was decided to explore the solubility of all the synthetized compounds, regardless of their biological activities, to find a suitable candidate for the validation of our working hypothesis, i.e., that the compounds exert their activities by directly binding to RNF5. For that, we first calculated the predicted octanol/water partition coefficient (log Po/w) and the predicted aqueous solubility (log S) of all the analogues by QikProp (Schrödinger Release 2022-1: QikProp, Schrödinger, LLC, New York, NY, 2021, Table S1). […] To shrink down the number of compounds for solubility experiments, just the ones that had −2.0 < log Po/w < 6 and −6.5 < log S <0.5 values were selected. Among them, the PBS solubility was determined for five representative analogues: (i) 12 and 29 bearing different substituents on the benzyl group A; (ii) 34 and 40 showing the replacement of rings B and C with pyridine-4-yl moieties; (iii) 42 in which the N-phenylbenzamidine portion was replaced with a pyridine-2-yl moiety (Table 1).
# All the NMR experiments were recorded at 298 K using a 5 mm CryoProbe QCI ^1H/^19F–^13C/^15N–D quadruple resonance, a shielded z-gradient coil, and an automatic sample changer SampleJet NMR system with temperature control. The solubility of the compounds were evaluated by ^1H 1D experiments and aggregation by WaterLOGSY, testing the compounds in buffer PBS pH 7,5, 1 μM ZnCl2, 1 mM DTT, 10% D2O (for the lock signal), and 1% DMSO-d6 at the theoretical concentrations of 20, 50, and 100 μM in the presence of 200 μM 4-trifluoromethyl benzoic acid (internal reference). For all samples, a 1D ^1H NMR experiment was recorded, the water suppression was obtained using the standard NOESY (nuclear Overhauser effect spectroscopy) preset Bruker pulse sequence, with 64k data points, a spectral width (sw) of 30 ppm, 64 scans, acquisition time (aq) of 1.835 s, a relaxation delay (d1) of 4 s, and a mixing time of 10 ms. […] The data were multiplied by an exponential window function with 1 Hz line broadening prior to Fourier transformation. For NMR binding experiments, the compounds were tested at 50 μM in buffer PBS pH 7.5, 1 μM ZnCl2, 1 mM DTT, 10% D2O (for the lock signal), and 1% DMSO-d6 in the absence and in the presence of 3 μM RNF5. WaterLOGSY experiments were recorded with the same parameters used in solubility assays, but with a higher number of scans (512); STD experiments were recorded with 128 scans, with two on (0.7 and 1 ppm) and one off (−50 ppm) resonance spectra, a Gaussian-shaped train pulse of 50 ms each was employed, with a total saturation time of the protein envelope of 5, 3, 2, 1.5, 1, or 0.5 s. A T1ρ filter of 2 ms was employed in STD experiments to eliminate the background signals from the protein. The STD spectrum was obtained by subtraction of the on-resonance spectrum from the off-resonance spectrum. Subtraction was performed by phase cycling to minimize artifacts arising from magnet and temperature instabilities.
# [3] = PBS buffer, aqueous buffer, kinetic from dmso stock, theoretical concentration 20 μM
# [4] = PBS buffer, aqueous buffer, kinetic from dmso stock, theoretical concentration 50 μM
# [5] = PBS buffer, aqueous buffer, kinetic from dmso stock
# [6] = PBS buffer, aqueous buffer, kinetic from dmso stock, theoretical concentration 20 μM, read-out: solubility in PBS buffer by NMR, 20 μM
# [7] = theoretical concentration 50 μM
SMILES,binding to RNF5 by WaterLOGSY and STD NMR [1],solubility and aggregation in PBS (in words) ([2]; PBS buffer),"solubility at 20 µM [2, 3]","solubility at 50 µM [2, 4]","solubility at 100 µM [2, 5]",aggregation in PBS buffer by NMR [2],"solubility [2, 6]","solubility at 50 µM [2, 7]",solubility at 100 µM [2],"solubility ([2]; PBS buffer, aqueous buffer, kinetic from dmso stock, theoretical concentration 50 μM, read-out: solubility in PBS buffer by NMR, 50 μM)"
"Cc1ns/c(=N\C(=N\c2ccccc2)c2ccccc2)n1Cc1ccc(C(=O)O)cc1 [Compound 12, 4-(((Z)-3-Methyl-5-(((E)-phenyl(phenylimino)methyl)imino)-1,2,4-thiadiazol-4(5H)-yl)methyl)benzoic Acid]",bind the recombinant RNF5 protein,no aggregation and solubility suitable for in vitro/biophysical binding experiments,20 µM,50 µM,100 µM,no,–,–,–,–
"COc1cccc(Cn2c(C)ns/c2=N\C(=N\c2ccccc2)c2ccccc2)c1 [Compound 16, (E)-N-((Z)-4-(3-Methoxybenzyl)-3-methyl-1,2,4-thiadiazol-5(4H)-ylidene)-N′-phenylbenzimidamide]",–,–,–,–,–,no,< 5 µM,<5 µM,<5 µM,–
"Cc1ns/c(=N\c2ccccn2)n1Cc1ccccc1 [Compound 42, (Z)-4-Benzyl-3-methyl-N-(pyridin-2-yl)-1,2,4-thiadiazol-5(4H)-imine]",bind the recombinant RNF5 protein,no aggregation and solubility suitable for in vitro/biophysical binding experiments,20 µM,40 µM,5 µM,no,–,–,–,–
"Cc1ns/c(=N\C(=N\c2ccccc2)c2ccccc2)n1Cc1ccccc1 [inh-2, reference compound]",–,–,–,–,–,no,< 5 µM,<5 µM,<5 µM,–
"Cc1ns/c(=N\C(=N\c2ccncc2)c2ccccc2)n1Cc1ccccc1 [Compound 40, (E)-N-((Z)-4-Benzyl-3-methyl-1,2,4-thiadiazol-5(4H)-ylidene)-N′-(pyridin-4-yl)benzimidamide]",bind the recombinant RNF5 protein,no aggregation and solubility suitable for in vitro/biophysical binding experiments,20 µM,–,–,no,–,–,–,30 µM
